According to paper PMC2649369 (The Journal of neuroscience : the official journal of the …, 2007):

Assays:
[1] = test system: α1 65-3,4,5-F3-Phe β2 GABAA receptor; experiment: GABA concentration-response, voltage-clamp in oocytes, α1 65-3,4,5-F3-Phe; assay type: cell-based, human
[2] = test system: α1β2 97-3,5-F2-Phe GABAA receptor; experiment: GABA concentration-response, voltage-clamp in oocytes, β2 97-3,5-F2-Phe; assay type: cell-based, human
[3] = test system: α1β2 97-3,4,5-F3-Phe GABAA receptor; experiment: GABA concentration-response, voltage-clamp in oocytes, β2 97-3,4,5-F3-Phe; assay type: cell-based, human
[4] = test system: α1β2 157-3,5-F2-Phe GABAA receptor; experiment: GABA concentration-response, voltage-clamp in oocytes, β2 157-3,5-F2-Phe; assay type: cell-based, human
[5] = test system: α1β2 157-3,4,5-F3-Phe GABAA receptor; experiment: GABA concentration-response, voltage-clamp in oocytes, β2 157-3,4,5-F3-Phe; assay type: cell-based, human
[6] = test system: α1β2 157-4-Me-Phe GABAA receptor; experiment: GABA concentration-response, voltage-clamp in oocytes, β2 157-4-Me-Phe; assay type: cell-based, human
[7] = test system: α1β2 205-4-F-Phe GABAA receptor; experiment: GABA concentration-response, voltage-clamp in oocytes, β2 205-4-F-Phe; assay type: cell-based, human
[8] = test system: α1β2 205-3,5-F2-Phe GABAA receptor; experiment: GABA concentration-response, voltage-clamp in oocytes, β2 205-3,5-F2-Phe; assay type: cell-based, human
[9] = test system: α1β2 205-3,4,5-F3-Phe GABAA receptor; experiment: GABA concentration-response, voltage-clamp in oocytes, β2 205-3,4,5-F3-Phe; assay type: cell-based, human
[10] = test system: GABAA receptors with phenylalanine mutations at β2Tyr157 and β2Tyr205; conditions: phenylalanine mutants vs unmutated; ref Amin and Weiss, 1993; cited from earlier work
[11] = target: GABAA receptor α1Phe64 (α1Phe65 by human numbering) to Leu mutant; conditions: cited from earlier work

For `NCCCC(=O)O` [GABA], the “nH (Hill coefficient)” value [1] was 1.5, the “nH (Hill coefficient)” value [2] was 1.1 and the “nH (Hill coefficient)” value [3] was 1.9. The “nH (Hill coefficient)” value [4] was 2.0, the “nH (Hill coefficient)” value [5] was 1.7 and the “nH (Hill coefficient)” value [6] was 0.8. The “nH (Hill coefficient)” value [7] was 1.9, the “nH (Hill coefficient)” value [8] was 1.9 and the “nH (Hill coefficient)” value [9] was 2.5.

In the case of `CCCC(C)C1(CC)C(=O)NC(=O)NC1=O` (centres unmarked) [pentobarbital], the “functional response on activation of the receptors” value [10] is given as “no change in functional response”.

In the case of `CN1CCc2cc3c(cc2[C@H]1[C@@H]1OC(=O)c2c1ccc1c2OCO1)OCO3` [bicuculline], the “change of IC50 on mutation” value [11] is given as “increasing by similar amounts”.
